In ChEMBL document CHEMBL1201862, “PubChem BioAssay data set” (2004):
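48-hour exposure; five concentrations; linearly interpolated endpoints. The concentration for 50% growth inhibition is given as GI50.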 Active and inactive are the calls of the source. Rule as the data show it: active = GI50 up to about 1.1 µM and inactive = higher.

Key:
Assay in all cases: inhibition of tumour cell growth, NCI panel, 48 h
786-0 = system: 786-0
A549 = system: A549
CAKI-1 = system: CAKI-1
COLO 205 = system: COLO 205
HT-29 = system: HT-29
IGROV-1 = system: IGROV-1
K562 = system: K562
KM12 = system: KM12
LOX IMVI = system: LOX IMVI
OVCAR-3 = system: OVCAR-3
OVCAR-4 = system: OVCAR-4
OVCAR-8 = system: OVCAR-8
PC-3 = system: PC-3
SF-268 = system: SF-268
SK-MEL-28 = system: SK-MEL-28
SN12C = system: SN12C
SNB-19 = system: SNB-19
U-251 = system: U-251
SK-MEL-2 = system: SK-MEL-2

Measured: GI50

COc1ccc(-c2cc(O)c3cc(OC)c(OC)cc3n2)cc1OC
inactive: 786-0 > 100 µM | A549 > 100 µM | CAKI-1 > 100 µM | COLO 205 > 100 µM | HT-29 > 100 µM | IGROV-1 > 100 µM | K562 > 100 µM | KM12 > 100 µM | LOX IMVI > 100 µM | OVCAR-3 > 100 µM | OVCAR-4 > 100 µM | OVCAR-8 > 100 µM | PC-3 > 100 µM | SF-268 > 100 µM | SK-MEL-28 > 100 µM | SN12C > 100 µM | SNB-19 > 100 µM | U-251 > 100 µM

O=c1cc2ccccc2nn1Cc1ccccc1Cl
inactive: 786-0 > 100 µM | A549 > 100 µM | CAKI-1 > 100 µM | COLO 205 > 100 µM | HT-29 > 100 µM | IGROV-1 > 100 µM | K562 85.3 µM | KM12 > 100 µM | LOX IMVI > 100 µM | OVCAR-3 94.6 µM | OVCAR-4 > 100 µM | OVCAR-8 > 100 µM | SF-268 > 100 µM | SK-MEL-28 > 100 µM | SK-MEL-2 > 100 µM | SN12C > 100 µM | SNB-19 > 100 µM | U-251 > 100 µM

CCOC(=O)/C=C/n1c2ccccc2c(=O)c2cc(OC)ccc21
inactive: 786-0 > 100 µM | A549 > 100 µM | CAKI-1 > 100 µM | COLO 205 > 100 µM | HT-29 38.5 µM | IGROV-1 > 100 µM | K562 > 100 µM | KM12 > 100 µM | LOX IMVI 20.7 µM | OVCAR-3 > 100 µM | OVCAR-4 > 100 µM | OVCAR-8 > 100 µM | SF-268 > 100 µM | SK-MEL-28 > 100 µM | SK-MEL-2 > 100 µM | SN12C > 100 µM | SNB-19 61.2 µM | U-251 71.8 µM

COC(=O)[C@H](Cc1ccccc1)NC(=O)/C(=C/C(C)C)NC(=O)[C@H](CCSC)NC=O
inactive: 786-0 > 100 µM | A549 > 100 µM | CAKI-1 > 100 µM | COLO 205 > 100 µM | HT-29 > 100 µM | IGROV-1 > 100 µM | K562 > 100 µM | KM12 > 100 µM | LOX IMVI > 100 µM | OVCAR-3 > 100 µM | OVCAR-4 > 100 µM | OVCAR-8 > 100 µM | SF-268 > 100 µM | SK-MEL-28 > 100 µM | SK-MEL-2 > 100 µM | SN12C > 100 µM | SNB-19 > 100 µM | U-251 > 100 µM

C=C1C(=O)O[C@H]2C[C@@]3(COC(C)=O)C=COC=C(COC(=O)C(C)C)C3CC12 (some centres not stated)
inactive: 786-0 > 100 µM | A549 > 100 µM | CAKI-1 65.2 µM | COLO 205 61.1 µM | HT-29 > 100 µM | IGROV-1 > 100 µM | K562 31.6 µM | KM12 > 100 µM | LOX IMVI 45.2 µM | OVCAR-3 > 100 µM | OVCAR-8 53.3 µM | PC-3 35.3 µM | SF-268 > 10 µM | SK-MEL-28 > 100 µM | SN12C 37.7 µM | SNB-19 > 100 µM | U-251 29.4 µM

CC(=O)C(CN(C)C)C(c1ccccc1)c1c(O)c2ccccc2oc1=O (configuration not stated)
inactive: 786-0 > 100 µM | A549 > 100 µM | CAKI-1 > 100 µM | COLO 205 > 100 µM | HT-29 > 100 µM | IGROV-1 > 100 µM | K562 > 100 µM | KM12 > 100 µM | LOX IMVI > 100 µM | OVCAR-3 > 100 µM | OVCAR-4 > 100 µM | OVCAR-8 > 100 µM | SF-268 > 100 µM | SK-MEL-28 > 100 µM | SK-MEL-2 > 100 µM | SN12C > 100 µM | SNB-19 > 100 µM | U-251 > 100 µM
